Measured values as given in patent publication US9901615B2, “Method for treatment of gastric ulcers” (priority 2015, dated 2018).
Where no end group is shown, it is not given here.

Experiments:
[1] = Acute oral toxicity of TP4; design: species or system C3H/HeN mice; conditions: single oral dose, 10-fold the in vivo therapeutic dose, 24 hours
Description: (§1) Acute toxicity was assessed in C3H/HeN mice with 6 animals per group, by single oral administration of TP4 (125 mg/kg). […] Subacute toxicity: animals were administered with TP4 (600 μg dose/day) for 14 days. During dose administration, the animals were observed every day for any signs of toxicity for 28 days test period. The morbidity, mortality, and other clinical signs were recorded and assessed.

[2] = Sub-acute oral toxicity of TP4; assay type: in vivo, C3H/HeN mice; conditions: 3-fold therapeutic doses orally for 14 days, observed days 1 to 28
Description: as §1

Dermal toxicity of TP4 = assay type: in vivo, C3H/HeN mice
Description: TP4 (125 mg/kg) was applied onto the mouse skin (topical).

[3] = Eye irritation test of TP4 in New Zealand White rabbits; assay type: in vivo; conditions: for Abnormality iris, grading / Chemosis, grading / Conjunctivae redness, grading / Corneal opacity, grading: rabbits, OECD 405 grading
Description: Healthy young adults rabbit eyes were treated with TP4, PBS (vehicle control), or 0.1% SDS (positive control). […] […] Clinical signs were recorded during the test period, and grades were assigned for ocular reactions during examination.

## FIHHIIGGLFSAGKAIHRLIRRRRR [TP4, Nile tilapia piscidin 4]
[1]
  clinical signs, acute oral toxicity: did not exhibit any abnormal clinical signs
[2]
  clinical complications, sub-acute oral toxicity: did not induce clinical complications
Dermal toxicity of TP4; dermal exposure, 14 days observation period
  dermal toxicity: No mortality or damaging effects were observed
Dermal toxicity of TP4; mice, 48 h post-exposure, 125 mg/kg TP4 or 20% SDS (FIG. 17B)
  appearance of the skin: no obvious lesions were observed
[3]; rabbits treated with 50 mg/kg TP4 or SDS for 7 days, observed daily (FIG. 17A)
  ocular appearance: no ocular lesions were detected
[3]; Day 1
  Abnormality iris, grading: 0
  Chemosis, grading: 0
  Conjunctivae redness, grading: 0
  Corneal opacity, grading: 0
[3]; Day 3
  Abnormality iris, grading: 0
  Chemosis, grading: 0.1
  Conjunctivae redness, grading: 0
  Corneal opacity, grading: 0
[3]; Day 5
  Abnormality iris, grading: 0
  Chemosis, grading: 0.1
  Conjunctivae redness, grading: 0.1
  Corneal opacity, grading: 0.1
[3]; Day 7
  Abnormality iris, grading: 0
  Chemosis, grading: 0.1
  Conjunctivae redness, grading: 0
  Corneal opacity, grading: 0.1
[3]; Recovery, Day 14
  Abnormality iris, grading: 0
  Chemosis, grading: 0
  Conjunctivae redness, grading: 0
  Corneal opacity, grading: 0
